Test results taken from patent publication US20260216190A1, “TREATMENT OF HEMATOLOGICAL MALIGNANCIES WITH INHIBITORS OF MENIN” (Kura Oncology, Inc., priority 2018, published 2026).

Biological target: T1, menin-MLL interaction (Homo sapiens, UniProt O00255)
T1 sequence (O00255 1-610): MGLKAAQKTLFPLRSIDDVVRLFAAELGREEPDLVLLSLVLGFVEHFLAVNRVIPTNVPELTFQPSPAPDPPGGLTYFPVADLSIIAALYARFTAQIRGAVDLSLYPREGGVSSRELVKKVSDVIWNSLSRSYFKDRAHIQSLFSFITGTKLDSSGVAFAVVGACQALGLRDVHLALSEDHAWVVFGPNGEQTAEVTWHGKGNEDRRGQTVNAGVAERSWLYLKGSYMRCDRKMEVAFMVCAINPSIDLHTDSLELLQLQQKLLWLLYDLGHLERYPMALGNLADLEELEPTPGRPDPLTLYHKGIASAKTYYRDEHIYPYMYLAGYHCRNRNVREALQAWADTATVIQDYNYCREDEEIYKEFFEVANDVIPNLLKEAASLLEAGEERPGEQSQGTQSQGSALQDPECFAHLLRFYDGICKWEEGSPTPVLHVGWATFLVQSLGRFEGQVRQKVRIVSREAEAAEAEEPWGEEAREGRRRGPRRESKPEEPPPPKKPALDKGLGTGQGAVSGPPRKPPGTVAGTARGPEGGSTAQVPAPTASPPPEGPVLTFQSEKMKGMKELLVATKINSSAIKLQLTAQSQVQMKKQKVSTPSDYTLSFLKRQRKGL
Assay: Fluorescence polarization (FP) competition assay
Assay type: binding
Details: read-out: Menin MLL 4-43 IC50

Compound	IC50 [nM]
COCCNS(=O)(=O)N1CCN([C@@H](C)Cn2c(C#N)cc3c(C)c(CN4CCC(Nc5ncnc6sc(CC(F)(F)F)cc56)CC4)ccc32)CC1 [Compound I-142]	50 to 250
Cc1c(CN2CCC(Nc3ncnc4sc(CC(F)(F)F)cc34)CC2)ccc2c1cc(C#N)n2CC(C1CC1)N1CCN(S(C)(=O)=O)CC1 (centres unmarked) [Compound I-23]	< 50
